Data as given in patent US20100298141A1, “SUBSTITUTED PYRIDINE N-OXIDE HERBICIDES” (E. I. DU PONT DE NEMOURS AND COMPANY, priority 2007, published 2010).

How the values were obtained:
soybean = assay: Test C pre-/postemergence test; format: in vivo, Glycine max
Description: (§1) Seeds of plant species selected from blackgrass (Alopecurus myosuroides), downy brome (Bromus tectorum), green foxtail (Setaria viridis), Italian ryegrass (Lolium multiflorum), wheat (Triticum aestivum), wild oat (Avena fatua), catchweed bedstraw (Galium aparine), Russian thistle (Salsola kali), […] (Cynodon dactylon), Surinam grass (Brachiaria decumbens), cocklebur (Xanthium strumarium), corn (Zea mays), crabgrass (Digitaria sanguinalis), woolly cupgrass (Eriochloa villosa), giant foxtail (Setaria faberii), Goosegrass (Eleusin indica), johnsongrass (Sorghum halepense), kochia (Kochia scoparia), lambsquarters (Chenopodium album), morningglory (Ipomoea coccinea), eastern black nightshade (Solanum ptycanthum), yellow nutsedge (Cyperus esculentus), pigweed (Amaranthus retroflexus), common ragweed (Ambrosia elation), soybean (Glycine max), common (oilseed) sunflower (Helianthus annuus), and velvetleaf (Abutilon theophrasti) were planted and treated preemergence with test chemicals formulated in a non-phytotoxic solvent mixture which included a surfactant. At the same time, plants selected from these crop and weed species and also winter barley (Hordeum vulgare), canarygrass (Phalaris minor), and chickweed (Stellaria media) were treated with postemergence applications of some of the test chemicals formulated in the same manner. Plants ranged in height from 2 to 18 cm (1- to 4-leaf stage) for postemergence treatments. […] At time of treatment, test pots were flooded to 3 cm above the soil surface, treated by application of test compounds directly to the paddy water, and then maintained at that water depth for the duration of the test. […] A dash (-) response means no test result.

cocklebur = assay: Test C pre-/postemergence test; format: in vivo, Xanthium strumarium
Description: as §1

duck salad = assay: Test C flooded paddy test; format: in vivo, Heteranthera limosa; conditions: Flood
Summary of the method: (§2)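 In-water treatment: compound dosed into 3 cm flood over soil, water level unchanged throughout. Controls run alongside; visual assessment at day 13–15.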

downy brome = assay: Test C pre-/postemergence test; format: in vivo, Bromus tectorum; conditions: for Plant response rating, Bromegrass, Downy: 31 g ai/ha, scale 0 to 100 (0 no effect, 100 complete control)
Description: as §1

woolly cupgrass = assay: Test C pre-/postemergence test; format: in vivo, Eriochloa villosa
Description: as §1

bermudagrass = assay: Test C pre-/postemergence test; format: in vivo, Cynodon dactylon; conditions: for Plant response rating, Bermudagrass: 31 g ai/ha
Description: as §1

yellow nutsedge = assay: Test C pre-/postemergence test; format: in vivo, Cyperus esculentus; conditions: for Plant response rating, Nutsedge, Yellow: 31 g ai/ha, scale 0 to 100 (0 no effect, 100 complete control)
Description: as §1

wild oat = assay: Test C pre-/postemergence test; format: in vivo, Avena fatua; conditions: for Plant response rating, Oat, Wild: 31 g ai/ha, scale 0 to 100 (0 no effect, 100 complete control)
Description: as §1

redroot pigweed = assay: Test A pre-/postemergence greenhouse test; format: in vivo, Amaranthus retroflexus; conditions: for Plant response rating, Pigweed: 0 to 100 scale where 0 is no effect and 100 is complete control; for Pigweed plant response rating: 0 to 100 scale
Summary of the method: (§3)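 Seeds sown in a loam soil–sand blend got a preemergence directed soil spray of compound in a non-phytotoxic solvent mixture containing surfactant. Postemergence sprays of the same formulation went at the same time onto plants 2–10 cm tall at the one- to two-leaf stage. Injury was scored visually against untreated controls after about ten days in the greenhouse.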

blackgrass = assay: Test C pre-/postemergence test; format: in vivo, Alopecurus myosuroides; conditions: for Plant response rating, Blackgrass: 31 g ai/ha, scale 0 to 100 (0 no effect, 100 complete control)
Description: as §1

rice = assay: Test C flooded paddy test; format: in vivo, Oryza sativa; conditions: Flood
Summary of the method: as §2

morningglory = assay: Test A pre-/postemergence greenhouse test; format: in vivo, Ipomoea spp.; conditions: for Plant response rating, Morningglory: 0 to 100 scale where 0 is no effect and 100 is complete control; for Morningglory plant response rating: 0 to 100 scale
Summary of the method: as §3

kochia = assay: Test C pre-/postemergence test; format: in vivo, Kochia scoparia; conditions: for Plant response rating, Kochia: 31 g ai/ha, scale 0 to 100 (0 no effect, 100 complete control)
Description: as §1

green foxtail = assay: Test C pre-/postemergence test; format: in vivo, Setaria viridis; conditions: for Plant response rating, Foxtail, Green: 31 g ai/ha, scale 0 to 100 (0 no effect, 100 complete control)
Description: as §1

[1] = 125 g ai/ha, preemergence, scale 0 (no effect) to 100 (complete control)
[2] = 62 g ai/ha, Preemergence, scale 0 to 100
[3] = preemergence, 250 g ai/ha, scale 0 (no effect) to 100 (complete control)
[4] = 62 g ai/ha, scale 0 to 100 (0 no effect, 100 complete control)
[5] = 250 g ai/ha, scale 0 to 100, 0 no effect, 100 complete control, 13 to 15 days
[6] = 62 g ai/ha, Preemergence, scale 0 to 100 (0 no effect, 100 complete control)
[7] = Preemergence, scale 0 to 100 (0 no effect, 100 complete control)
[8] = Postemergence, 500 g ai/ha, 0 is no effect, 100 is complete control
[9] = Preemergence, 125 g ai/ha, 0 no effect, 100 complete control
[10] = Preemergence, 31 g ai/ha, scale 0 to 100 (0 no effect, 100 complete control)

**Q.** Which “Soybean plant response rating” value (soybean; [1]) does the source give for `CCn1nc(C(F)(F)F)c(C[S+]([O-])c2cc(C)cc[n+]2[O-])c1OCC(F)(F)F` (racemic) [Compound 66] here?
**A.** 80

**Q.** And the “Cocklebur plant response rating” value (cocklebur; [2])?
**A.** 0

**Q.** And the “Cocklebur plant response rating” value (cocklebur; [3])?
**A.** 85

**Q.** What about the “Plant response rating, Ducksalad” value (duck salad; [4]) of the same molecule?
**A.** 70

**Q.** And the “Plant response rating, Ducksalad” value (duck salad; [5])?
**A.** 90

**Q.** And the “Bromegrass, Downy plant response rating” value (downy brome; [2])?
**A.** 90

**Q.** And the “Bromegrass, Downy plant response rating” value (downy brome; [1])?
**A.** 100

**Q.** And the “Plant response rating, Bromegrass, Downy” value (downy brome; Preemergence)?
**A.** 70

**Q.** What about the “Bromegrass, Downy plant response rating” value (downy brome; [3]) of the same molecule?
**A.** 100

**Q.** And the “Cupgrass, Woolly plant response rating” value (woolly cupgrass; [2])?
**A.** 85

**Q.** What about the “Cupgrass, Woolly plant response rating” value (woolly cupgrass; [1]) of the same molecule?
**A.** 100

**Q.** What about the “Cupgrass, Woolly plant response rating” value (woolly cupgrass; [3]) of the same molecule?
**A.** 100

**Q.** And the “Bermudagrass plant response rating” value (bermudagrass; [6])?
**A.** 100

**Q.** What about the “Bermudagrass plant response rating” value (bermudagrass; [1]) of the same molecule?
**A.** 100

**Q.** And the “Plant response rating, Bermudagrass” value (bermudagrass; [7])?
**A.** 100

**Q.** What about the “Bermudagrass plant response rating” value (bermudagrass; [3]) of the same molecule?
**A.** 100

**Q.** What about the “Nutsedge, Yellow plant response rating” value (yellow nutsedge; [2]) of the same molecule?
**A.** 30

**Q.** What about the “Nutsedge, Yellow plant response rating” value (yellow nutsedge; [1]) of the same molecule?
**A.** 40

**Q.** And the “Plant response rating, Nutsedge, Yellow” value (yellow nutsedge; Preemergence)?
**A.** 30

**Q.** What about the “Nutsedge, Yellow plant response rating” value (yellow nutsedge; [3]) of the same molecule?
**A.** 50

**Q.** And the “Oat, Wild plant response rating” value (wild oat; [2])?
**A.** 85

**Q.** What about the “Oat, Wild plant response rating” value (wild oat; [1]) of the same molecule?
**A.** 95

**Q.** And the “Plant response rating, Oat, Wild” value (wild oat; Preemergence)?
**A.** 85

**Q.** And the “Oat, Wild plant response rating” value (wild oat; [3])?
**A.** 95

**Q.** What about the “Plant response rating, Pigweed” value (redroot pigweed; Postemergence, 125 g ai/ha) of the same molecule?
**A.** 60

**Q.** What about the “Pigweed plant response rating” value (redroot pigweed; [8]) of the same molecule?
**A.** 90

**Q.** And the “Pigweed plant response rating” value (redroot pigweed; [9])?
**A.** 100

**Q.** What about the “Plant response rating, Pigweed” value (redroot pigweed; Preemergence, 500 g ai/ha) of the same molecule?
**A.** 100

**Q.** And the “Blackgrass plant response rating” value (blackgrass; [2])?
**A.** 70

**Q.** And the “Blackgrass plant response rating” value (blackgrass; [1])?
**A.** 100

**Q.** What about the “Plant response rating, Blackgrass” value (blackgrass; Preemergence) of the same molecule?
**A.** 50

**Q.** And the “Blackgrass plant response rating” value (blackgrass; [3])?
**A.** 100

**Q.** And the “Plant response rating, Rice” value (rice; [4])?
**A.** 20

**Q.** What about the “Plant response rating, Rice” value (rice; [5]) of the same molecule?
**A.** 70

**Q.** What about the “Plant response rating, Morningglory” value (morningglory; Postemergence, 125 g ai/ha) of the same molecule?
**A.** 60

**Q.** And the “Morningglory plant response rating” value (morningglory; [8])?
**A.** 90

**Q.** And the “Morningglory plant response rating” value (morningglory; [9])?
**A.** 70

**Q.** And the “Plant response rating, Morningglory” value (morningglory; Preemergence, 500 g ai/ha)?
**A.** 100

**Q.** What about the “Kochia plant response rating” value (kochia; [2]) of the same molecule?
**A.** 100

**Q.** What about the “Kochia plant response rating” value (kochia; [1]) of the same molecule?
**A.** 100

**Q.** And the “Plant response rating, Kochia” value (kochia; Preemergence)?
**A.** 100

**Q.** What about the “Kochia plant response rating” value (kochia; [3]) of the same molecule?
**A.** 100

**Q.** What about the “Foxtail, Green plant response rating” value (green foxtail; [2]) of the same molecule?
**A.** 100

**Q.** What about the “Foxtail, Green plant response rating” value (green foxtail; [1]) of the same molecule?
**A.** 100

**Q.** What about the “Plant response rating, Foxtail, Green” value (green foxtail; Preemergence) of the same molecule?
**A.** 85

**Q.** And the “Foxtail, Green plant response rating” value (green foxtail; [3])?
**A.** 100

**Q.** Which results are given for `CCn1nc(C(F)(F)F)c(CS(=O)(=O)c2cccc[n+]2[O-])c1OCC(F)(F)F` [Compound 63]?
**A.** Soybean plant response rating (soybean; [2]): 5; Plant response rating, Soybean (soybean; [10]): 0; Soybean plant response rating (soybean; [3]): 50; Plant response rating, Ducksalad (duck salad; [4]): 0; Plant response rating, Ducksalad (duck salad; [5]): 75; Bromegrass, Downy plant response rating (downy brome; [2]): 70; Bromegrass, Downy plant response rating (downy brome; [1]): 98; Plant response rating, Bromegrass, Downy (downy brome; Preemergence): 40; Bromegrass, Downy plant response rating (downy brome; [3]): 100; Cupgrass, Woolly plant response rating (woolly cupgrass; [2]): 85; Cupgrass, Woolly plant response rating (woolly cupgrass; [1]): 85; Plant response rating, Cupgrass, Woolly (woolly cupgrass; [10]): 0; Bermudagrass plant response rating (bermudagrass; [6]): 100; Bermudagrass plant response rating (bermudagrass; [1]): 100; Plant response rating, Bermudagrass (bermudagrass; [7]): 100; Bermudagrass plant response rating (bermudagrass; [3]): 100; Nutsedge, Yellow plant response rating (yellow nutsedge; [2]): 50; Nutsedge, Yellow plant response rating (yellow nutsedge; [1]): 55; Plant response rating, Nutsedge, Yellow (yellow nutsedge; Preemergence): 0; Nutsedge, Yellow plant response rating (yellow nutsedge; [3]): 98; Oat, Wild plant response rating (wild oat; [2]): 60; Oat, Wild plant response rating (wild oat; [1]): 85; Plant response rating, Oat, Wild (wild oat; Preemergence): 50; Oat, Wild plant response rating (wild oat; [3]): 95; Plant response rating, Pigweed (redroot pigweed; Postemergence, 125 g ai/ha): 50; Pigweed plant response rating (redroot pigweed; [8]): 80; Pigweed plant response rating (redroot pigweed; [9]): 70; Plant response rating, Pigweed (redroot pigweed; Preemergence, 500 g ai/ha): 100; Blackgrass plant response rating (blackgrass; [2]): 100; Blackgrass plant response rating (blackgrass; [1]): 100; Plant response rating, Blackgrass (blackgrass; Preemergence): 70; Blackgrass plant response rating (blackgrass; [3]): 100; Plant response rating, Rice (rice; [4]): 30; Plant response rating, Rice (rice; [5]): 35; Plant response rating, Morningglory (morningglory; Postemergence, 125 g ai/ha): 30; Morningglory plant response rating (morningglory; [8]): 60; Morningglory plant response rating (morningglory; [9]): 20; Plant response rating, Morningglory (morningglory; Preemergence, 500 g ai/ha): 70; Kochia plant response rating (kochia; [2]): 100; Kochia plant response rating (kochia; [1]): 100; Plant response rating, Kochia (kochia; Preemergence): 100; Kochia plant response rating (kochia; [3]): 100; Foxtail, Green plant response rating (green foxtail; [2]): 100; Foxtail, Green plant response rating (green foxtail; [1]): 100; Plant response rating, Foxtail, Green (green foxtail; Preemergence): 95; Foxtail, Green plant response rating (green foxtail; [3]): 100
